{"source": "patent US20240424175A1", "about": "“ANTICOAGULANT COMPOUNDS COMPRISING CHELATING AGENTS AND CATIONIC ANTI-COAGULATION ENHANCERS AND METHODS AND DEVICES FOR THEIR USE” (Elixir Medical Corporation, priority 2021, published 2024)", "key": {"fresh pig blood": {"system": "fresh pig blood", "test": "Activated clotting time (ACT) of EDTA or analogues in fresh pig blood (Example 3)", "assay_type": "biochemical", "details": "for Clotting time: blood control 154", "method": "The ACT measurements were made in fresh pig blood. 1.0 ml of fresh pig blood was added to a test tube containing an activator (Hemochron@Celite@ ACT tubes, Lot F8FTE026 from Accriva Diagnostics, Inc.). A target amount of drug solution was then added into the test tube. The test tube was gently swirled so that the blood and drug was well-mixed. 0.1 ml of 0.3M calcium chloride was then added. The tube was gently shaken before being inserted into the Hemochron Response detector. The ACT read out was recorded and reported. The ACT of the control blood in the absence of any drug as first determined to establish a baseline."}, "[1]": {"system": "Human Aortic SMC (HAoSMC, ATCC, PCS-100-012)", "test": "HAoSMC cell proliferation assay (CellTiter Aqueous, 96-well)", "assay_type": "cell-based", "details": "drug alone, various concentrations; 72 hours; FIGS. 1D-1E", "description": "Cell proliferation assay was done in 96-well format. Low passage cells were trypsinized and seeded in 96 well plates at a density of ˜4000 cells/well. The cells are allowed to attach overnight in a CO2 incubator. Next day, the medium was removed and replaced with fresh complete medium containing various concentrations of the test compounds. The final concentration of vehicle (DMSO) in the test medium was 0.1%. After adding test compounds, the cells were incubated for 72 hours. Following this period, the medium was removed and then added fresh medium (100 μl) containing CellTiter Aqueous (1× concentration final) to the wells and incubated for 2 hours in the CO2 incubator. At the end of incubation measured fluorescence with a plate-reader. Controlled incubations with untreated cells and blank incubations containing only medium were included and tested similarly. Based on the cell viability assay the percentage inhibition of the cell proliferation was determined at the different concentrations of the drug tested.\nFollowing the cell proliferation assay as indicated earlier, the percent cell proliferation inhibition was determined, and the assay results plotted to determine the IC50."}, "citrated sheep blood [2]": {"system": "citrated sheep blood", "test": "Activated clotting time (ACT) in calcium-reconstituted citrated sheep blood, Hemochron Response (Example 2)", "assay_type": "biochemical", "details": "individual drug at 0.6 ng/mg; FIG. 2C", "method": "The activated clotting time (ACT) evaluation of anticoagulants was performed in calcium-reconstituted sheep blood and recorded employing the Hemochron® Response device. […] A target amount of drug solution was then added into the test tube. […] The tube was gently shaken before being inserted into the Hemochron Response detector. The ACT read out was recorded and reported. The ACT of the control blood in the absence of any drug as first determined to establish a baseline. Then ACT was determined in the presence of different concentrations of the drug as a single component. Selected drug combinations were then tested to evaluate for potential synergy in action between the two drugs."}, "[3]": {"system": "porcine coronary artery model", "test": "Fibrin score, histopathology of stented arteries in porcine coronary artery model (Examples 16, 17)", "assay_type": "in vivo", "details": "14 mm stents, n = 3; score 0 to 3, smaller is better; bare metal control stent 1.02 ± 0.35", "description": "The drug eluting stent systems containing different anticoagulants prepared as described in Example 11 were evaluated at 3 hours, 6 hours, 1 day, 3 days, 6 days, 7 days, or 28 days following implantation in a porcine coronary artery model.\nAfter induction of anesthesia, the left or right femoral artery was accessed using standard techniques and an arterial sheath was introduced and advanced into the artery. Vessel angiography was performed under fluoroscopic guidance, a 7 Fr, guide catheter was inserted through the sheath and advanced to the appropriate location where intracoronary nitroglycerin was administered. An appropriate implantation segment of coronary artery was randomly selected and a 0.014″ guidewire inserted. Quantitative Coronary Angiography (QCA) was performed to document the results. The appropriately size stent was advanced to the deployment site. The balloon was inflated at a steady rate to a pressure sufficient to achieve a balloon to artery ratio of approximately 1.1 to 1.0.\nStented portions of coronary arteries were embedded in methyl methacrylate (MMA), then divided into a target of at least three blocks of approximately similar lengths for histology evaluation. Quantitative histopathological evaluation of stented artery sections was then performed and scored as indicated. For Fibrin formation, scores ranged from 0 to 3, with a score of 0 indicating absent or rare minimal spotting around struts of the stent, a score of 1 indicating the presence of fibrin in small amounts localized only around the struts, a score of 2 indicating the moderately abundant or denser presence of fibrin around and extending beyond the struts, and a score of 3 indicating the presence of abundant and dense fibrin and/or bridging of the fibrin between the struts. The mean score was calculated and reported. The mean of each section was then averaged to provide a mean fibrin score per stent. The smaller the fibrin score, the better efficacy."}, "[4]": {"system": "porcine coronary artery model", "test": "Late lumen loss (LLL) by follow up angiography in porcine coronary artery model (Example 16)", "assay_type": "in vivo", "details": "14 mm stents, n = 3; smaller is better; bare metal control stent 0.17 ± 0.22"}, "[5]": {"test": "In vivo drug release, drug remaining on stent and tissue drug concentration of SS7-SS17 stents (Tables 12A-12D)", "details": "28 D following implantation", "text": "The stented artery was cut longitudinally with surgical scissors. The stents were separated from the tissue."}, "[6]": {"system": "Tissue factor generated antiplatelet", "details": "cited from earlier work; for IC50 for Tissue factor generated antiplatelet: expressed in ng/mg"}, "[7]": {"test": "pH of 1 mg/ml EDTA or analogue in water or phosphate buffer", "assay_type": "physicochemical"}, "citrated sheep blood [8]": {"system": "citrated sheep blood", "test": "Activated clotting time (ACT) of EDTA or other anti-coagulant compounds in citrated sheep blood (Example 4)", "assay_type": "biochemical", "method": "The activated clotting time (ACT) evaluation of anticoagulants was performed in Calcium-reconstituted sheep blood and recorded employing the Hemochron® Response device. […] A target amount of EDTA or other anti-coagulant compounds solution was then added into the test tube. […] The tube was gently shaken before being inserted into the Hemochron Response detector. The ACT read out was recorded and reported."}, "[9]": {"details": "final drug concentration 200 ng/mg"}, "[10]": {"details": "final drug concentration 500 ng/mg"}, "[11]": {"details": "final drug concentration 100 ng/mg"}, "[12]": {"details": "final drug concentration 250 ng/mg"}, "[13]": {"details": "final drug concentration 300 ng/mg"}, "[14]": {"details": "1 mg/ml in 0.01M pH 7.4 phosphate buffer, 21.8-22.3 °C"}, "[15]": {"details": "final drug concentration 75 ng/mg"}, "[16]": {"details": "final drug concentration 150 ng/mg"}, "[17]": {"details": "final concentration 67 ng/mg (66.7 μg/ml)"}, "[18]": {"details": "final concentration 100 ng/mg (100 μg/ml)"}, "[19]": {"details": "final concentration […] (133.3 μg/ml)"}, "[20]": {"details": "final concentration […] (166.7 μg/ml)"}}, "data": [{"compound": "O=C(O)C(S)C(S)C(=O)O", "note": "(stereo not shown) [Dimercaptosuccinic acid(DMSA), dimercaptosuccinic acid]", "values": [{"measurement": "Increase in clotting time compared to control", "setting": "fresh pig blood; [9]", "value": -3, "unit": "s"}, {"measurement": "Clotting time", "setting": "fresh pig blood; [9]", "value": 151, "unit": "s"}]}, {"compound": "CC1CNc2c(cccc2S(=O)(=O)N[C@@H](CCCNC(=N)N)C(=O)N2CC[C@@H](C)C[C@@H]2C(=O)O)C1", "note": "(stereo partly shown) [Argatroban]", "values": [{"measurement": "inhibition of HAoSMC proliferation", "setting": "[1]", "value": "small to no inhibition"}, {"measurement": "ACT", "setting": "citrated sheep blood [2]", "value": 301}, {"measurement": "Fibrin score at day 7", "setting": "[3]", "value": "not effective at inhibiting fibrin formation"}, {"measurement": "LLL at day 7", "setting": "[4]", "value": "not effective at inhibiting smooth muscle cell proliferation"}, {"measurement": "Tissue drug concentration (ng/mg) in the stented segment tissue, Argatroban", "setting": "[5]", "value": "about 1.69 ng/mg"}, {"measurement": "IC50", "setting": "[6]", "value": 79, "unit": "nM"}, {"measurement": "IC50 for Tissue factor generated antiplatelet", "setting": "[6]", "value": 0.04, "unit": "ng/mg"}]}, {"compound": "O=C(NC[C@H]1CN(c2ccc(N3CCOCC3=O)cc2)C(=O)O1)c1ccc(Cl)s1", "note": "[Rivaroxaban]", "values": [{"measurement": "Fibrin score at day 7", "setting": "[3]", "value": "effective at inhibiting fibrin formation"}, {"measurement": "LLL at day 7", "setting": "[4]", "value": "not effective at inhibiting smooth muscle cell proliferation"}, {"measurement": "IC50", "setting": "[6]", "value": 312, "unit": "nM"}, {"measurement": "IC50 for Tissue factor generated antiplatelet", "setting": "[6]", "value": 0.136, "unit": "ng/mg"}]}, {"compound": "Dalteparin", "values": [{"measurement": "Fibrin score at day 7", "setting": "[3]", "value": "not effective at inhibiting fibrin formation"}, {"measurement": "LLL at day 7", "setting": "[4]", "value": "not effective at inhibiting smooth muscle cell proliferation"}]}, {"compound": "CC(=O)OCOC(=O)CN(CCN(CC(=O)OCOC(C)=O)CC(=O)OCOC(C)=O)CC(=O)OCOC(C)=O", "note": "[EDTA tetra acetoxymethyl ester, tetra acetoxymethyl ester EDTA]", "values": [{"measurement": "Increase in clotting time compared to control", "setting": "fresh pig blood; [10]", "value": 4, "unit": "s"}, {"measurement": "Clotting time", "setting": "fresh pig blood; [10]", "value": 158, "unit": "s"}]}, {"compound": "COc1ccc(-n2nc(C(N)=O)c3c2C(=O)N(c2ccc(N4CCCCC4=O)cc2)CC3)cc1", "note": "[Apixaban]", "values": [{"measurement": "inhibition of HAoSMC proliferation", "setting": "[1]", "value": "small to no inhibition"}, {"measurement": "ACT", "setting": "citrated sheep blood [2]", "value": 522}]}, {"compound": "O=C([O-])CN(CCN(CC(=O)[O-])CC(=O)[O-])CC(=O)[O-].[Na+].[Na+].[Na+].[Na+]", "note": "[EDTA•4Na•xH2O, tetrasodium edetate]", "values": [{"measurement": "Increase in clotting time compared to control", "setting": "fresh pig blood; [11]", "value": 50, "unit": "s"}, {"measurement": "Clotting time", "setting": "fresh pig blood; [11]", "value": 204, "unit": "s"}, {"measurement": "Increase in clotting time compared to control", "setting": "fresh pig blood; [9]", "value": 121, "unit": "s"}, {"measurement": "Clotting time", "setting": "fresh pig blood; [9]", "value": 275, "unit": "s"}, {"measurement": "Increase in clotting time compared to control", "setting": "fresh pig blood; [12]", "value": 175, "unit": "s"}, {"measurement": "Clotting time", "setting": "fresh pig blood; [12]", "value": 329, "unit": "s"}, {"measurement": "Increase in clotting time compared to control", "setting": "fresh pig blood; [13]", "value": ">346", "unit": "s"}, {"measurement": "Clotting time", "setting": "fresh pig blood; [13]", "value": ">500", "unit": "s"}, {"measurement": "Clotting time (sec)", "setting": "fresh pig blood; final drug concentration 300 ng/mg, blood control 154, listed as EDTA tetra sodium salt", "value": "same trend"}, {"measurement": "pH", "setting": "[7]; [14]", "value": 8.27}, {"measurement": "pH", "setting": "[7]; 1 mg/ml in d-water, 21.8-22 °C", "value": 9.61}]}, {"compound": "O=C([O-])CN(CCN(CC(=O)[O-])CC(=O)O)CC(=O)[O-].[Na+].[Na+].[Na+]", "note": "[EDTA tri sodium, trisodium edetate]", "values": [{"measurement": "pH", "setting": "[7]; [14]", "value": 7.77}, {"measurement": "pH", "setting": "[7]; 1 mg/ml in d-water, 21.8-22 °C", "value": 9.21}]}, {"compound": "O=C([O-])CN(CCN(CC(=O)O)CC(=O)O)CC(=O)[O-].[K+].[K+]", "note": "[EDTA dipotasium]", "values": [{"measurement": "pH", "setting": "[7]; [14]", "value": 6.93}, {"measurement": "pH", "setting": "[7]; 1 mg/ml in d-water, 21.8-22 °C", "value": 6.25}]}, {"compound": "O=C([O-])CN(CCN(CC(=O)[O-])CC(=O)O)CC(=O)O.[Na+].[Na+]", "note": "[EDTA•2Na•2H2O, disodium edetate]", "values": [{"measurement": "Increase in clotting time compared to control", "setting": "fresh pig blood; [11]", "value": 37, "unit": "s"}, {"measurement": "Clotting time", "setting": "fresh pig blood; [11]", "value": 191, "unit": "s"}, {"measurement": "Increase in clotting time compared to control", "setting": "fresh pig blood; [9]", "value": 110, "unit": "s"}, {"measurement": "Clotting time", "setting": "fresh pig blood; [9]", "value": 264, "unit": "s"}, {"measurement": "Increase in clotting time compared to control", "setting": "fresh pig blood; [13]", "value": 220, "unit": "s"}, {"measurement": "Clotting time", "setting": "fresh pig blood; [13]", "value": 374, "unit": "s"}, {"measurement": "Clotting time (sec)", "setting": "fresh pig blood; final drug concentration 300 ng/mg, blood control 154, listed as EDTA disodium salt", "value": "same trend"}, {"measurement": "pH", "setting": "[7]; [14]", "value": 6.92}, {"measurement": "pH", "setting": "[7]; 1 mg/ml in d-water, 21.8-22 °C", "value": 6.42}]}, {"compound": "O=C(O)CN(CCN(CC(=O)O)CC(=O)O)CC(=O)O", "note": "[EDTA, ethylenediaminetetraacetic acid]", "values": [{"measurement": "Increase in clotting time compared to control", "setting": "fresh pig blood; [15]", "value": 25, "unit": "s"}, {"measurement": "Clotting time", "setting": "fresh pig blood; [15]", "value": 179, "unit": "s"}, {"measurement": "Increase in clotting time compared to control", "setting": "fresh pig blood; [11]", "value": 93, "unit": "s"}, {"measurement": "Clotting time", "setting": "fresh pig blood; [11]", "value": 247, "unit": "s"}, {"measurement": "Increase in clotting time compared to control", "setting": "fresh pig blood; [16]", "value": 121, "unit": "s"}, {"measurement": "Clotting time", "setting": "fresh pig blood; [16]", "value": 275, "unit": "s"}, {"measurement": "Increase in clotting time compared to control", "setting": "fresh pig blood; [9]", "value": ">346", "unit": "s"}]}, {"compound": "CCCCCCCCCCCCCC[N+](C)(C)Cc1ccccc1.[Cl-]", "note": "[Benzyldimethyltetradecylammonium chloride]", "values": [{"measurement": "Clotting time", "setting": "citrated sheep blood [8]; [17]", "value": 316, "unit": "s"}, {"measurement": "Increase in clotting time compared to control", "setting": "citrated sheep blood [8]; [17]", "value": 114, "unit": "s"}, {"measurement": "Clotting time", "setting": "citrated sheep blood [8]; [18]", "value": 421, "unit": "s"}, {"measurement": "Increase in clotting time compared to control", "setting": "citrated sheep blood [8]; [18]", "value": 219, "unit": "s"}, {"measurement": "Clotting time", "setting": "citrated sheep blood [8]; [19]", "value": 983, "unit": "s"}, {"measurement": "Increase in clotting time compared to control", "setting": "citrated sheep blood [8]; [19]", "value": 781, "unit": "s"}, {"measurement": "Clotting time", "setting": "citrated sheep blood [8]; [20]", "value": 1370, "unit": "s"}, {"measurement": "Increase in clotting time compared to control", "setting": "citrated sheep blood [8]; [20]", "value": 1168, "unit": "s"}]}]}
